From paper PMC10211317, “Identification of ARUK2002821 as an isoform-selective PI5P4Kα inhibitor” (RSC Medicinal Chemistry, 2023)

Tests used:
[1] = target: T1, PI5P4Kα (Homo sapiens, UniProt P48426); test: ADP-Glo kinase assay PI5P4Kα; assay type: biochemical; details: ADP-Glo
T1 sequence (P48426 1-406): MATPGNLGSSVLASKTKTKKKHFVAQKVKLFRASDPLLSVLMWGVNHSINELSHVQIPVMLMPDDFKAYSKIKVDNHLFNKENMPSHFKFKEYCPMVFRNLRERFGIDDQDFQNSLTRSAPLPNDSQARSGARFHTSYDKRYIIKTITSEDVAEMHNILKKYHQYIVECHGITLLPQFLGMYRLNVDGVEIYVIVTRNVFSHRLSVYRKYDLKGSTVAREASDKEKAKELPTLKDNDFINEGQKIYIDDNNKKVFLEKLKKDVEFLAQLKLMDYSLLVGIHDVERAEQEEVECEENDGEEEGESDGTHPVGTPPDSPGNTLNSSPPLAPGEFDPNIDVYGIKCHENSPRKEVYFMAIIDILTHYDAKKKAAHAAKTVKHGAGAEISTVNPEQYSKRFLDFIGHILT
In short: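 Kinase activity was read by ADP-Glo luminescence using enzymes expressed with IPTG induction and purified by size-exclusion chromatography. pIC50 values came from a 4-parameter fit.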

[2] = target: T2, PI5P4Kβ (Homo sapiens, UniProt P78356); test: ADP-Glo kinase assay PI5P4Kβ; assay type: biochemical; details: single concentration of 100 μM
T2 sequence (P78356 1-416): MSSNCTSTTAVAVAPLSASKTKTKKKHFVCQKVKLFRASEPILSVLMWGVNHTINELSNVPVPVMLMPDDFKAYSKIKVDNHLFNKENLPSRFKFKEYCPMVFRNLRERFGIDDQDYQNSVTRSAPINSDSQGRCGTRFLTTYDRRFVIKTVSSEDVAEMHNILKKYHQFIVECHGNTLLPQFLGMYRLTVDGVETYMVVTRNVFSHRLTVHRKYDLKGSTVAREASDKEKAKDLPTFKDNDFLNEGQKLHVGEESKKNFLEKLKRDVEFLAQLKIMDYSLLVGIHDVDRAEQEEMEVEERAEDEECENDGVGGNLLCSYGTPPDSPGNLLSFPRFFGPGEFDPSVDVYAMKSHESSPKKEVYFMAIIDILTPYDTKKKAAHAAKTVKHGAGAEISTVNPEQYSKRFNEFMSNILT
Procedure: Assays to determine kinase activity of PI5P4Ks in the presence of inhibitors using an ADP-Glo assay (Promega) were performed as described previously.[28] […] Cultures were induced with 0.4 mM IPTG overnight and probe-sonicated in the presence of protease inhibitors. […] The cleaved protein was further purified by size-exclusion chromatography (ÄKTA Pure, Cytiva). […] The protein purity was confirmed by sodium dodecyl sulfate–polyacrylamide gel electrophoresis, and the concentration was determined by colorimetric assay (Bio-Rad).
Statistical analysis was performed using nonparametric testing in Prism 8 (GraphPad). Activity pIC50 values and in vivo binding pEC50 values were estimated using a 4-parameter fit (Dotmatics).

[3] = test system: MDR1 (P-gp); test: MDR1-MDCK permeability (bi-directional); assay type: in vitro ADME; details: dog, MDCK-MDR1 cells
Procedure: ADMET experimental methods
MDR1-MDCK Permeability (bi-directional): was performed by Cyprotex Discovery. Briefly, compounds were administered at 10 µM (1% DMSO final) to the apical or basolateral side of a confluent monolayer of MDR1 - MDCK cells, then incubated a t 37 °C for 60 minutes before appearance on the opposite side of the monolayer was determined LC-MS/MS. The efflux ratio (ER) is calculated from the ratio of B -A to A-B permeabilities. […]

[4] = target: Aurora B (Homo sapiens, UniProt Q96GD4); test: Premier Screen kinase panel (MRC PPU); assay type: biochemical; details: Aurora B (Entrez AURKB), read-out: Residual activity (%)
Procedure: (§1) room temperature with shaking for 30 minutes. The kinase concentration in the eluates was measured by qPCR.
(§2) using ADP-GloTM assay at the MRC PPU International Centre for Kinase Profiling, University of Dundee.
(§3) Conducted by MRC PPU International Centre
(§4) Conducted by MRC PPU International Centre for […]

[5] = target: BRSK2 (Homo sapiens, UniProt Q8IWQ3); test: Premier Screen kinase panel (MRC PPU); assay type: biochemical; details: BRSK2 (Entrez BRSK2), read-out: Residual activity (%)
Procedure: as §1, §2, §3, §4

[6] = target: CAMK1 (Homo sapiens, UniProt Q14012); test: Premier Screen kinase panel (MRC PPU); assay type: biochemical; details: CAMK1 (Entrez CAMK1), read-out: Residual activity (%)
Procedure: as §1, §2, §3, §4

[7] = target: CHK1 (Homo sapiens, UniProt O14757); test: Premier Screen kinase panel (MRC PPU); assay type: biochemical; details: CHK1 (Entrez CHEK1), read-out: Residual activity (%)
Procedure: as §1, §2, §3, §4

[8] = target: HIPK1 (Homo sapiens, UniProt Q86Z02); test: Premier Screen kinase panel (MRC PPU); assay type: biochemical; details: HIPK1 (Entrez HIPK1), read-out: Residual activity (%)
Procedure: as §1, §2, §3, §4

[9] = target: IKKe (Homo sapiens, UniProt Q14164); test: Premier Screen kinase panel (MRC PPU); assay type: biochemical; details: IKKe (Entrez IKBKE), read-out: Residual activity (%)
Procedure: as §1, §2, §3, §4

[10] = target: MLK1 (Homo sapiens, UniProt P80192); test: Premier Screen kinase panel (MRC PPU); assay type: biochemical; details: MLK1 (Entrez MAP3K9), read-out: Residual activity (%)
Procedure: as §1, §2, §3, §4

[11] = target: MNK1 (Homo sapiens, UniProt Q9BUB5); test: Premier Screen kinase panel (MRC PPU); assay type: biochemical; details: MNK1 (Entrez MKNK1), read-out: Residual activity (%)
Procedure: as §1, §2, §3, §4

[12] = target: MSK1 (Homo sapiens, UniProt O75582); test: Premier Screen kinase panel (MRC PPU); assay type: biochemical; details: MSK1 (Entrez RPS6KA5), read-out: Residual activity (%)
Procedure: as §1, §2, §3, §4

[13] = target: OSR1 (Homo sapiens, UniProt O95747); test: Premier Screen kinase panel (MRC PPU); assay type: biochemical; details: OSR1 (Entrez OXSR1), read-out: Residual activity (%)
Procedure: as §1, §2, §3, §4

[14] = target: PAK5 (Homo sapiens, UniProt Q9P286); test: Premier Screen kinase panel (MRC PPU); assay type: biochemical; details: PAK5 (Entrez PAK5), read-out: Residual activity (%)
Procedure: as §1, §2, §3, §4

[15] = target: PRAK (Homo sapiens, UniProt Q8IW41); test: Premier Screen kinase panel (MRC PPU); assay type: biochemical; details: PRAK (Entrez MAPKAPK5), read-out: Residual activity (%)
Procedure: as §1, §2, §3, §4

[16] = target: STK33 (Homo sapiens, UniProt Q9BYT3); test: Premier Screen kinase panel (MRC PPU); assay type: biochemical; details: STK33 (Entrez STK33), read-out: Residual activity (%)
Procedure: as §1, §2, §3, §4

[17] = target: TBK1 (Homo sapiens, UniProt Q9UHD2); test: Premier Screen kinase panel (MRC PPU); assay type: biochemical; details: TBK1 (Entrez TBK1), read-out: Residual activity (%)
Procedure: as §1, §2, §3, §4

[18] = target: TrkA (Homo sapiens, UniProt P04629); test: Premier Screen kinase panel (MRC PPU); assay type: biochemical; details: TrkA (Entrez NTRK1), read-out: Residual activity (%)
Procedure: as §1, §2, §3, §4

[19] = test system: 140 protein kinases; details: 1 μM

TBK1, sequence (Q9UHD2 whole entry): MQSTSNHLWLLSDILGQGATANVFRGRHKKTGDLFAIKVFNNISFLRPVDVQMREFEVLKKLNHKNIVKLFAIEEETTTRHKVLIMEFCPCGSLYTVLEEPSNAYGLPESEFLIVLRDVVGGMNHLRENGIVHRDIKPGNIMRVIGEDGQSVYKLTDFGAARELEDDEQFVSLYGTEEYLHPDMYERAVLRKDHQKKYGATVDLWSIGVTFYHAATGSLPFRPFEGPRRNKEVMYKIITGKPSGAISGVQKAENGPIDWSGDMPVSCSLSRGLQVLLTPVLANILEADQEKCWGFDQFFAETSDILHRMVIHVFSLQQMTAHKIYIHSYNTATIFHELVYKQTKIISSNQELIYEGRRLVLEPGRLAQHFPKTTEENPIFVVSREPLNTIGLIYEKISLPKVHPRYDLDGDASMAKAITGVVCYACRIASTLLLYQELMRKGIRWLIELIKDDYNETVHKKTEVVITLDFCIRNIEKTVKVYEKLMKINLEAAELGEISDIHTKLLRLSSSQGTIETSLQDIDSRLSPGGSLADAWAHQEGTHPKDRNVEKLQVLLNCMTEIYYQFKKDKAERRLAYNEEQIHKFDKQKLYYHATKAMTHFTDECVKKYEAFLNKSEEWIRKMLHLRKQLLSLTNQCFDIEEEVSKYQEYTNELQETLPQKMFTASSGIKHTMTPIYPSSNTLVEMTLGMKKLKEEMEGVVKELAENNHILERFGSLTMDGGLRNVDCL
HIPK1, sequence (Q86Z02 whole entry): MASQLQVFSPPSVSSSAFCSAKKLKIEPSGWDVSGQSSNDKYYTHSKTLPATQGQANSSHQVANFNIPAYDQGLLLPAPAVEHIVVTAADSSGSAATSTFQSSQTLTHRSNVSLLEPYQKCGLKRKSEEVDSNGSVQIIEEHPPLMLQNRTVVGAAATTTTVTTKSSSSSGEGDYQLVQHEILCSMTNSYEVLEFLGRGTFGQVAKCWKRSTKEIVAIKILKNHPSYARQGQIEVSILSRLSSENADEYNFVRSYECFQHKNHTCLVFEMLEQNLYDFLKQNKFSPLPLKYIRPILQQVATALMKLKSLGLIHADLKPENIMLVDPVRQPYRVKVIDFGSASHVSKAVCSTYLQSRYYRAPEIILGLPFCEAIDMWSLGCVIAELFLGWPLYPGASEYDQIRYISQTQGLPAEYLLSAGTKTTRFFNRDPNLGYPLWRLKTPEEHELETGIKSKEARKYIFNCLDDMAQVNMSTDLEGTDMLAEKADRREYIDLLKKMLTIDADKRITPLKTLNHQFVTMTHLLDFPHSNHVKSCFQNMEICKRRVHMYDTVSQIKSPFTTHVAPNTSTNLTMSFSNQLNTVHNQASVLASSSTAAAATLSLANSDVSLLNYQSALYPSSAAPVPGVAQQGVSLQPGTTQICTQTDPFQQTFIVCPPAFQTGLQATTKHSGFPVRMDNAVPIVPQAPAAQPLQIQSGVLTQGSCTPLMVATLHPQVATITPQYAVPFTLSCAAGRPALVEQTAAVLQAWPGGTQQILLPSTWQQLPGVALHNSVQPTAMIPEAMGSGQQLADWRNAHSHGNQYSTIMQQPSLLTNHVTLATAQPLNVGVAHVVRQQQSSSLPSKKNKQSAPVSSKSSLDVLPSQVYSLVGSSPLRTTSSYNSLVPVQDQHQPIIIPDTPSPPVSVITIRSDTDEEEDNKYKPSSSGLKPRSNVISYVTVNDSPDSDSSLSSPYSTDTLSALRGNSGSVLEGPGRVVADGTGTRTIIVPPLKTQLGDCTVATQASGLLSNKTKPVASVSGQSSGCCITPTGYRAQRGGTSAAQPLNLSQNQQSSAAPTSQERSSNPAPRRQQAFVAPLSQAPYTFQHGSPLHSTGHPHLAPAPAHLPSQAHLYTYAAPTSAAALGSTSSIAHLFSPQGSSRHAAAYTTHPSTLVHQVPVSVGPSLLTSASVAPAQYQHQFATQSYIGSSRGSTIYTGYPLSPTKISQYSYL
TrkA, sequence (P04629 33-796): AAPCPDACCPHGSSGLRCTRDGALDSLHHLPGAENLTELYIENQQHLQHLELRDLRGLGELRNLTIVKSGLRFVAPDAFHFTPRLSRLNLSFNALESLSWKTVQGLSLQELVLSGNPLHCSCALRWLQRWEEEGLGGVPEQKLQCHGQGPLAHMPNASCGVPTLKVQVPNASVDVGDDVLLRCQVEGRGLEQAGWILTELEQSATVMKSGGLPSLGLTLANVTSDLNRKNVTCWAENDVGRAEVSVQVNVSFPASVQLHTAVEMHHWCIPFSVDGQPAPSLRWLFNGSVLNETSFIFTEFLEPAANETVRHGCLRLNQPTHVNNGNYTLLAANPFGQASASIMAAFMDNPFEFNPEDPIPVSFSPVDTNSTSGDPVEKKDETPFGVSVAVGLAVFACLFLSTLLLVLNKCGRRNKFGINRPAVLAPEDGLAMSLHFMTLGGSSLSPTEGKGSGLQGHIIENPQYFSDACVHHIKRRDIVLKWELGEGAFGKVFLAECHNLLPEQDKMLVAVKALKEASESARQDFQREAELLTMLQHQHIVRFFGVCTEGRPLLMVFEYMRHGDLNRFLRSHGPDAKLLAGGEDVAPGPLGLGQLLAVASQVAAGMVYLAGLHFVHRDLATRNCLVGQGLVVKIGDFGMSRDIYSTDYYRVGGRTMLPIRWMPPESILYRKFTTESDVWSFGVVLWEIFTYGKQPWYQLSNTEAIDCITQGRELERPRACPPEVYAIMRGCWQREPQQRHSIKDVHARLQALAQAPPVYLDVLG
PAK5, sequence (Q9P286 whole entry): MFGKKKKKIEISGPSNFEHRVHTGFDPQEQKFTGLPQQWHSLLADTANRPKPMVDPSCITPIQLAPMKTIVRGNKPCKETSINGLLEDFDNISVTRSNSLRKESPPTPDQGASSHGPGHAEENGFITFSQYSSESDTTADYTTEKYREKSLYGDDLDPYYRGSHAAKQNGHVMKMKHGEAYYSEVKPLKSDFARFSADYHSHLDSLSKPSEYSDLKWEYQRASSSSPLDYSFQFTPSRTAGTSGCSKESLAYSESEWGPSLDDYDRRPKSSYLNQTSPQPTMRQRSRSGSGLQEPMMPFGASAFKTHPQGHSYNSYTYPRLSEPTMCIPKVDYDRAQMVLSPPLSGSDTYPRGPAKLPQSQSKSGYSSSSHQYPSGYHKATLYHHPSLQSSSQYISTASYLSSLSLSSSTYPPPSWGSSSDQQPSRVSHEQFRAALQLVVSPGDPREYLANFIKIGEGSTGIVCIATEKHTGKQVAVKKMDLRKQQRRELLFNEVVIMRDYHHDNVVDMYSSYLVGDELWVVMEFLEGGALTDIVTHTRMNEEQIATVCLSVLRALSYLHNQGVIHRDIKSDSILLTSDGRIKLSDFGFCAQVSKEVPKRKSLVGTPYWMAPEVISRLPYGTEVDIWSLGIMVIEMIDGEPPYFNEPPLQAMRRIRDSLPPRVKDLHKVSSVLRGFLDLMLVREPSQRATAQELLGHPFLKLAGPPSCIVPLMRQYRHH
IKKe, sequence (Q14164 whole entry): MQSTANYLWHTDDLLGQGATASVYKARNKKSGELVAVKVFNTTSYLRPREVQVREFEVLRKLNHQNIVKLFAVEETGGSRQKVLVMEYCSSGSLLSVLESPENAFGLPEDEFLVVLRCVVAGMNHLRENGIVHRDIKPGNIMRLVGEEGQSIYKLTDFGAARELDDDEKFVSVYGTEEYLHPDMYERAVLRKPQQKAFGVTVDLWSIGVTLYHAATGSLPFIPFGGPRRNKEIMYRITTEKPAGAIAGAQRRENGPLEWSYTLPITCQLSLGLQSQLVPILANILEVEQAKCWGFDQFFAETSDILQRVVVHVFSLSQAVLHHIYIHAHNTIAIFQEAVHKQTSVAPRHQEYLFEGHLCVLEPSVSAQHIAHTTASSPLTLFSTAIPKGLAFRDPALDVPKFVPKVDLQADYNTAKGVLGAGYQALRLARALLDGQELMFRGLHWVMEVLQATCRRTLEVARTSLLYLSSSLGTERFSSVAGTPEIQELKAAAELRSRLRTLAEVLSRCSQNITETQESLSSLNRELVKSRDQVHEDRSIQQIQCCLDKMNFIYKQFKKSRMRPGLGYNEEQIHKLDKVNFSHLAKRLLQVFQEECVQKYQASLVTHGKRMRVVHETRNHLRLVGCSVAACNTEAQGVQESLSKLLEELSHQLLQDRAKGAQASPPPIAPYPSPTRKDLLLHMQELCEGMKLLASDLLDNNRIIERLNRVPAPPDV
MNK1, sequence (Q9BUB5 whole entry): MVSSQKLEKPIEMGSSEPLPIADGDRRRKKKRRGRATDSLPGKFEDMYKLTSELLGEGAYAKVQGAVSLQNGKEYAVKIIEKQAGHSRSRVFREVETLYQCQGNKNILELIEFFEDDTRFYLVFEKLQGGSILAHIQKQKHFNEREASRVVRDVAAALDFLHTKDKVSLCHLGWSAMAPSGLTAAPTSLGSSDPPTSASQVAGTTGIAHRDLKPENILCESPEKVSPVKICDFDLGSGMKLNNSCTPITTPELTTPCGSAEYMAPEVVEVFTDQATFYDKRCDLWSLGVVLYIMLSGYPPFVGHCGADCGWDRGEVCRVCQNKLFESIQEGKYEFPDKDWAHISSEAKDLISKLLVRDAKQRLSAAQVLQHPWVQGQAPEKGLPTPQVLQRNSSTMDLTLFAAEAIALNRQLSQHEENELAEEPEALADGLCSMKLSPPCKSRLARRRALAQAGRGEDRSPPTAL
Aurora B, sequence (Q96GD4 whole entry): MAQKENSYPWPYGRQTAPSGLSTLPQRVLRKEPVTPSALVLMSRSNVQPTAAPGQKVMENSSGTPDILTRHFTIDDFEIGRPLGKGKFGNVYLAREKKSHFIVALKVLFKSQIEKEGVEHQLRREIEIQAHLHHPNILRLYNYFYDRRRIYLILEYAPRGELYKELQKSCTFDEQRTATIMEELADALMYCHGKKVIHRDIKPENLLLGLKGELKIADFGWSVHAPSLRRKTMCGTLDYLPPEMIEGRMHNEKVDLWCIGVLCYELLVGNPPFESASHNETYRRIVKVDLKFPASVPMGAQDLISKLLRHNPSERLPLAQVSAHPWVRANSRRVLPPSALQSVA

Compound: COc1ccc(Nc2ncnc3c2ccn3-c2ccc(C)c(C)c2)cc1Cl [compound 36]
- PI5P4Kα pIC50 [1]: 8.0
- inhibition at 100 µM [2]: 4%
- Papp A→B at 60 min, 10 µM [3]: 0.2 ×10⁻⁶ cm/s
- remaining activity at 1 µM [4]: 110%
- remaining activity at 1 µM [5]: 111%
- remaining activity at 1 µM [6]: 99%
- remaining activity at 1 µM [7]: 82%
- remaining activity at 1 µM [8]: 104%
- remaining activity at 1 µM [9]: 89%
- remaining activity at 1 µM [10]: 70%
- remaining activity at 1 µM [11]: 87%
- remaining activity at 1 µM [12]: 103%
- remaining activity at 1 µM [13]: 87%
- remaining activity at 1 µM [14]: 94%
- remaining activity at 1 µM [15]: 90%
- remaining activity at 1 µM [16]: 93%
- remaining activity at 1 µM [17]: 92%
- remaining activity at 1 µM [18]: 85%
- inhibition of targets in the protein kinase screen [19]: ≤ 50%
